Source: US20260184712A1, “Heterocyclic Compounds as ENT Inhibitors and Compounds for Use in the Treatment of Cancers” (iTeos Belgium SA, priority 2022, published 2026)

biological target: T1, human ENT1 (Homo sapiens, UniProt Q99808); test: ENT1 binding assay (competition with Sahenta-DY647 on JAR cells); settings: competition with SAHENTA-DY647 binding; IC50 categorized; read-out: Binding Assay IC50
T1 construct: JAR cells expressing ENT1 were purchased from ATCC; host or cells: JAR cells
T1 sequence (Q99808 1-456): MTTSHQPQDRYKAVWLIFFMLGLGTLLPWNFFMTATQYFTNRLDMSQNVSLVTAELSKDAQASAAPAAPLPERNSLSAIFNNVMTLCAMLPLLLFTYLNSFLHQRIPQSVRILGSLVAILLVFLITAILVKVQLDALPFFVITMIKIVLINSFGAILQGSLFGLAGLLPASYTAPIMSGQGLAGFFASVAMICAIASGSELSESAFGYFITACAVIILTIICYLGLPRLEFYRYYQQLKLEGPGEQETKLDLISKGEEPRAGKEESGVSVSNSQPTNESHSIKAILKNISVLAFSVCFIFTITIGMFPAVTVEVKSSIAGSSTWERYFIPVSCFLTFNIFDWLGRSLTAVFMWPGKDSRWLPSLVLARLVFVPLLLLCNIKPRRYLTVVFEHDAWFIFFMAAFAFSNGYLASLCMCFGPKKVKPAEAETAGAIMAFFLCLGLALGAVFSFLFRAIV
How it was run: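 Whole-cell competition on JAR cells (native ENT1): 50,000 cells pre-incubated 30 min at 4 °C with compound in HBSS/10 mM Hepes/0.1% BSA, then 100 nM Sahenta-DY647 added for 30 min at 4 °C. After washing, fluorescence (Ex 630/Em 670 nm) read; IC50 from sigmoidal fit, averaged as pIC50.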

SMILES | IC50 [nM]
C[C@H]1O[C@@H](n2cnc3c(C(=O)NCc4ccc(OC(F)F)cc4)ncnc32)[C@H](O)[C@@H]1O [Compound 301] | > 500
C[C@H]1O[C@@H](n2cnc3c(C(=O)N4CCc5cc([N+](=O)[O-])ccc5C4)ncnc32)[C@H](O)[C@@H]1O [Compound 302] | > 500
OC[C@@H]1C[C@@H](O)[C@H](n2cnc3c(OCc4ccc(OC(F)F)cc4)ncnc32)O1 [Compound 303] | > 500
CC(NC(=O)c1ncnc2c1ncn2[C@@H]1O[C@H](C)[C@@H](O)[C@H]1O)c1ccc([N+](=O)[O-])cc1 (some centres unmarked) [Compound 305] | > 500
C[C@H]1O[C@@H](n2cnc3c(SCc4cccc(OC5CC5)c4)ncnc32)[C@H](O)[C@@H]1O [Compound 306] | > 500
C[C@H]1O[C@@H](n2cnc3c(OCc4ccc(C(F)(F)F)cc4Cl)ncnc32)[C@H](O)[C@@H]1O [Compound 307] | > 500
C[C@H]1O[C@@H](n2cnc3c(SCc4ccc5ccncc5c4)ncnc32)[C@H](O)[C@@H]1O [Compound 308] | > 500
O=[N+]([O-])c1ccc(COc2ncnc3c2nnn3[C@@H]2C[C@H](OCCO)[C@@H](O)[C@H]2O)cc1 [Compound 309] | > 500
C[C@H]1O[C@@H](n2cnc3c(SCc4nc(-c5ccccc5Cl)no4)ncnc32)[C@H](O)[C@@H]1O [Compound 310] | > 500
C[C@H]1O[C@@H](n2cnc3c(SCc4cnc(C(F)(F)F)nc4)ncnc32)[C@H](O)[C@@H]1O [Compound 311] | > 500
C[C@H]1O[C@@H](n2cnc3c(C(=O)NCc4ccc([N+](=O)[O-])cc4)ncnc32)[C@H](O)[C@@H]1O [Compound 312] | > 500
C[C@H]1O[C@@H](n2cnc3c(OCc4ccc5c(c4)OCC5)ncnc32)[C@H](O)[C@@H]1O [Compound 313] | > 500
C[C@H]1O[C@@H](n2cnc3c(OCc4ccc(-n5cncn5)cc4)ncnc32)[C@H](O)[C@@H]1O [Compound 314] | > 500
C[C@H]1O[C@@H](n2cnc3c(N4CCC(c5ccc([N+](=O)[O-])cc5)C4)ncnc32)[C@H](O)[C@@H]1O (some centres unmarked) [Compound 315] | > 500
C[C@H]1O[C@@H](n2cnc3c(OCc4ccc(-n5ccnc5)cc4)ncnc32)[C@H](O)[C@@H]1O [Compound 316] | > 500
C[C@H]1O[C@@H](n2cnc3c(CN4Cc5ccc(C#N)cc5C4)ncnc32)[C@H](O)[C@@H]1O [Compound 317] | > 500
C[C@H]1O[C@@H](n2cnc3c(NCc4cccc(C(F)F)c4)ncnc32)[C@H](O)[C@@H]1O [Compound 318] | > 500
C[C@H]1O[C@@H](n2cnc3c(OCCc4ccc(C#N)nc4)ncnc32)[C@H](O)[C@@H]1O [Compound 319] | > 500
Cc1ccc(CNc2ncnc3c2ncn3[C@@H]2O[C@H](C)[C@@H](O)[C@H]2O)cc1C [Compound 320] | > 500
C[C@H]1O[C@@H](n2cnc3c(OCc4cscn4)ncnc32)[C@H](O)[C@@H]1O [Compound 321] | > 500
C[C@H]1O[C@@H](n2cnc3c(NCc4ccc5c(c4)CCC5)ncnc32)[C@H](O)[C@@H]1O [Compound 322] | > 500

Results, then the compound that gave them:

IC50 [nM] | SMILES
> 500 | C[C@H]1O[C@@H](n2cnc3c(OCc4ccccc4C(F)(F)F)ncnc32)[C@H](O)[C@@H]1O [Compound 323]
> 500 | C[C@H]1O[C@@H](n2cnc3c(N(C)CCc4ccc([N+](=O)[O-])cc4)ncnc32)[C@H](O)[C@@H]1O [Compound 324]
> 500 | COc1ccccc1COc1ncnc2c1ncn2[C@@H]1O[C@H](C)[C@@H](O)[C@H]1O [Compound 325]
> 500 | C[C@H]1O[C@@H](n2cnc3c(NCc4ccc(-n5ccnn5)cc4)ncnc32)[C@H](O)[C@@H]1O [Compound 326]
> 500 | C[C@H]1O[C@@H](n2cnc3c(N[C@H]4C[C@@H]4c4ccc(Cl)cc4)ncnc32)[C@H](O)[C@@H]1O [Compound 327]
> 500 | C[C@H]1O[C@@H](n2cnc3c(OCc4ccc(-n5cccn5)cc4)ncnc32)[C@H](O)[C@@H]1O [Compound 328]
> 500 | CN(C)C(=O)[C@H]1O[C@@H](n2cnc3c(OCc4ccc([N+](=O)[O-])cc4)ncnc32)[C@H](O)[C@@H]1O [Compound 329]
> 500 | C[C@H]1O[C@@H](n2cnc3c(C(=O)NCc4ccc(Cl)cc4F)ncnc32)[C@H](O)[C@@H]1O [Compound 330]
> 500 | Cc1cccc(C)c1CNc1ncnc2c1ncn2[C@@H]1O[C@H](C)[C@@H](O)[C@H]1O [Compound 331]
> 500 | C[C@H]1O[C@@H](n2cnc3c(OCc4cccc(S(C)(=O)=O)c4)ncnc32)[C@H](O)[C@@H]1O [Compound 332]
> 500 | C[C@H]1O[C@@H](n2cnc3c(OCc4ccc5cnn(C)c5c4)ncnc32)[C@H](O)[C@@H]1O [Compound 333]
> 500 | C[C@H]1O[C@@H](n2cnc3c(NCc4ccc(S(N)(=O)=O)cc4)ncnc32)[C@H](O)[C@@H]1O [Compound 334]
> 500 | C[C@H]1O[C@@H](n2cnc3c(NCc4cccc(OC(F)(F)F)c4)ncnc32)[C@H](O)[C@@H]1O [Compound 335]
> 500 | C[C@H]1O[C@@H](n2cnc3c(OCCc4ccc(OCF)nc4)ncnc32)[C@H](O)[C@@H]1O [Compound 336]
> 500 | C[C@H]1O[C@@H](n2cnc3c(SCc4ncc(F)cc4F)ncnc32)[C@H](O)[C@@H]1O [Compound 337]
> 500 | Cc1nc2ccc(COc3ncnc4c3ncn4[C@@H]3O[C@H](C)[C@@H](O)[C@H]3O)cc2o1 [Compound 338]
> 500 | Cc1cc2cc(CNc3ncnc4c3ncn4[C@@H]3O[C@H](C)[C@@H](O)[C@H]3O)ccc2[nH]1 [Compound 339]
> 500 | Cc1cc(C)c(COc2ncnc3c2ncn3[C@@H]2O[C@H](C)[C@@H](O)[C@H]2O)c(C)c1 [Compound 340]
> 500 | C[C@H]1O[C@@H](n2cnc3c(C(=O)Nc4ccc([N+](=O)[O-])cc4)ncnc32)[C@H](O)[C@@H]1O [Compound 341]
> 500 | C[C@H]1O[C@@H](n2cnc3c(SCc4ccc5ccccc5n4)ncnc32)[C@H](O)[C@@H]1O [Compound 342]
> 500 | C[C@H]1O[C@@H](n2cnc3c(OCCc4ccc(OCF)cc4)ncnc32)[C@H](O)[C@@H]1O [Compound 343]
> 500 | C[C@H]1O[C@@H](n2cnc3c(OCCc4ccc(S(C)(=O)=O)cc4)ncnc32)[C@H](O)[C@@H]1O [Compound 344]
> 500 | Cc1c(N[C@@H]2O[C@H](C)[C@@H](O)[C@H]2O)ncnc1OCCc1ccc([N+](=O)[O-])cc1 [Compound 345]
> 500 | COc1ccc(COc2ncnc3c2ncn3[C@@H]2O[C@H](C)[C@@H](O)[C@H]2O)cc1OC1CCCC1 [Compound 346]
> 500 | C[C@H]1O[C@@H](n2cnc3c(OCCc4cnc(C#N)nc4)ncnc32)[C@H](O)[C@@H]1O [Compound 347]
> 500 | Cc1cc(CSc2ncnc3c2ncn3[C@@H]2O[C@H](C)[C@@H](O)[C@H]2O)no1 [Compound 348]
> 500 | C[C@H]1O[C@@H](n2cnc3c(OCCc4ccc(OC(F)(F)F)nc4)ncnc32)[C@H](O)[C@@H]1O [Compound 349]
> 500 | CCOc1ccc(CNC(=O)c2ncnc3c2ncn3[C@@H]2O[C@H](C)[C@@H](O)[C@H]2O)cc1 [Compound 350]
> 500 | C[C@H]1O[C@@H](n2cnc3c(C(=O)NCc4ccc5c(ccn5C)c4)ncnc32)[C@H](O)[C@@H]1O [Compound 351]
